Reference: paper PMC5958115, “A novel small molecule chaperone of rod opsin and its potential therapy for retinal degeneration” (Nature Communications, 2018)
Entries after “also recorded” stand apart in the source; their conditions may differ. Read-outs that look alike come from different tables or passages of the source.

Legend:
Assay type in all cases: cell-based
[1] = biological target: mouse P23H-opsin mutant (Mus musculus, UniProt P15409, P23H); experiment: β-Gal fragment complementation assay: rescue of P23H opsin transport from ER to plasma membrane, U2OS(PLC-EA/P23H-PK) cells
Description: U2OS(PLC-EA/P23H-PK) cells. A U2OS stable cell line was generated by DiscoveRx, Inc. (Fremont, CA, USA) for the β-Gal fragment complementation assay used in the small-molecule HTS for rescue of P23H-opsin transport. U2OS cells that continually express P23H-PK and PLC-EA fusion proteins were generated. Briefly, this small subunit of β-Gal (PK fragment) was fused to the C-terminal of the mouse P23H-opsin mutant, while the large EA fragment, a subunit of β-Gal, was fused with PLC, a plasma membrane-anchored peptide. Both constructs were subcloned by DicoveRx, Inc. and transferred into U2OS cells by viral infections. Positive clones were selected under treatment with hygromycin and geneticin.
Briefly, U2OS(PLC-EA /P23H-PK) cells were suspended in assay medium at 3 × 10^5 cells mL^−1. The cell suspension was dispensed into 384-well plates (Greiner Bio-one, Monroe, NC, USA) at 20 µL per well, with a Multidrop dispenser (Thermo Scientific, Waltham, MA, USA). Plates with cells then were centrifuged at 200×g for 15 s before incubation at 37 °C with 5% CO2. Plates were removed 24 h later for treatment with tested compounds. A total of 248 plates containing 79,080 compounds from three small-molecule libraries were paired with an equal number of assay plates with cultured cells. Owing to a limited capacity, these plates were assayed in seven batches. An average of 56.3 nL of 10 mM compound in DMSO was dispensed into each well from column 3 to 22 of paired assay plates using a 50 nL 384-pintool system, such that the final concentration of each compound was 22.52 µM on average. […] Each assay plate was shaken for 5 s before further incubation at 37 °C with 5% CO2. After 24 h, assay plates were removed, and each well was incubated with 25 µL of 1× Gal-Screen assay buffer (1:24 substrate-buffer ratio). Assay plates were incubated in the dark for 60–90 min, and luminescence was read from each assay plate with an Envision microplate reader (PerkinElmer) during a 0.1 s per well integration time. The mean and s.d. of readouts in column 2 of each plate were calculated as Mean0% and SD0%, whereas the average and s.d. of readouts in column 23 were calculated as Mean100% and SD100%. Eq. 1: Activity scores (%) = (RLUcp − Mean0%)/(Mean100% − Mean0%) × 100%, where RLUcp is the relative luminescence unit derived for cells treated with a compound. Eq. 2: Z′-factor = 1–3 × (SD0% + SD100%)/(Mean100% − Mean0%)[32]; Eq. 3: signal-to-background (S/B) ratio = Mean100%/Mean0%. Activities of all tested compounds were registered with their compound ID by GeneData Screener (Genedata, Basel, Switzerland) and Pipeline Pilot software (Accelrys, San Diego, CA, USA). Hits, cherry-picked from a separate stock dose-dependent activity test, were selected with an activity score cutoff at 20%. Activity of each hit was tested again with the β-Gal fragment complementation assay in a 10-dose series with each dose tested in triplicate. The 10 doses tested were 80, 40, 20, 10, 5, 2.5, 1.25, 0.625, 0.313, and 0.156 µM. Dose-dependent curves of each hit compound were fitted with GeneData and Origin software.
Detailed synthetic steps are described in Supplementary Note and Supplementary Fig. 9. […] YC-002-YC-021 were purchased from commercial vendors including Enamine LLC (Monmouth Jct., NJ, USA), Matrix Scientific (Columbia, SC, USA) and Tokyo Chemical Industry Co., Ltd. (Portland, OR, USA). […] Activities of YC compounds were tested with the β-Gal fragment complementation assay, as described in a prior section. All YC compounds were tested at 10 doses, each in triplicate: 80, 40, 20, 10, 5, 2.5, 1.25, 0.625, 0.313, and 0.156 µM.

[2] = biological target: T1, mouse P23H opsin (Mus musculus, UniProt P15409, P23H); experiment: High-content imaging analysis of P23H opsin immunostaining in NIH3T3-(P23H opsin/GFP) cells; settings: ratio of P23H rod opsin fluorescence on plasma membrane to whole cell; for EC50: read-out: Immunostaining HCS MEM-Total ratio EC50
T1 construct: expressed in transfected cells
Protocol: To characterize the effect of active compounds on the localization of P23H-mutant opsin in mammalian cells, an image-based assay was used with cells immunostained for WT or P23H-mutant opsin protein[18]. Briefly, NIH3T3-(P23H opsin/GFP) or NIH3T3-(WT-opsin/GFP) cells were seeded at 5000 cells per well in a 384-well cell-carrier plate (PerkinElmer) and incubated at 37 °C with 5% CO2 for 2 h. Cells were treated with compounds as described for the β-Gal fragment complementation assay and incubated in assay medium for 24 h. The assay medium then was aspirated, and cells were fixed with 4% paraformaldehyde at 20 µL per well for 20 min at RT. Cells were immunostained in one of two ways: cell membranes were either permeabilized with 0.1% Triton X-100 for 15 min or left intact and then were incubated with 10% goat serum (Life Technologies). To detect opsin on the cell plasma membrane only, intact cells were immunostained with 20 µL per well of 20 µg mL^−1 B6-30 anti-rhodopsin antibody that recognizes the N-terminal epitope on the extracellular side of rhodopsin. To detect total opsin, cells were permeabilized with Triton X-100 and immunostained with 50 µg mL^−1 1D4 anti-rhodopsin antibody specific for the C-terminal epitope on the intracellular side of rhodopsin. Opsin immunostaining was visualized by incubating cells with 5 µg mL^−1 Cy3-conjugated goat anti-mouse IgG antibody. Three washes with phosphate-buffered saline (PBS: 10 mM Na2HPO4, 1.8 mM KH2PO4, pH 7.4, 137 mM NaCl, and 2.7 mM KCl) were performed between each step of incubation with antibody. In the last wash with PBS, DAPI was added to each well at 300 nM. Fluorescence images were obtained with the Operetta High Content Imaging System (PerkinElmer) using a ×20 long objective. Five fields were taken of each well for cell images using three channels for fluorescence: GFP (100 ms), Cy3 (300 ms), and DAPI (50 ms). Images were analyzed with Acapella software from the Columbus data storage and analysis system (PerkinElmer)[18]. For cells immunostained with opsin on the non-permeabilized cell membrane only, an average of total fluorescence intensity of Cy3 per cell was used to quantify opsin in each well of the 384-well plate. For cells immunostained with opsin in permeabilized whole cells, an average ratio of Cy3 intensity on the cell plasma membrane (PM) to that of the entire cell (opsin ratio PM-to-total) was calculated for each well of a 384-well plate to quantify opsin transport to the plasma membrane. The plasma membrane was defined within ± 5% of the cell border.

[3] = biological target: T2, P23H opsin (Mus musculus, UniProt P15409, P23H); experiment: Immunoblot of P23H opsin glycosylation in NIH3T3 cell lysates; design: key to Improved glycosylation: n = no; y = yes; settings: P23H opsin
T2 construct: expressed in transfected cells
Protocol: NIH3T3-(P23H opsin/GFP) or NIH3T3-(WT-opsin/GFP) cells were seeded in a 48-well plate (Corning Costar) at 3.2 × 10^5 cells per well and incubated at 37 °C with 5% CO2 for 2 h. One hundred-µL of assay medium containing a compound at 5× its final concentration was added to each well. The plate was gently shaken for 5 s before further incubation at 37 °C with 5% CO2 for 24 h. The assay medium then was aspirated, and cells were lysed with 100 µL per well PBS containing 0.1% Triton X-100 and complete protease inhibitor cocktail (Roche, Basel, Switzerland) followed by sonication for 3 s. Protein concentrations were determined with the Bradford assay. For PNGaseF catalyzed deglycosylation, 3 µL of PNGaseF (1500 U, NEB) was added to the cell lysate and the mixture was incubated at room temperature for 1 h before immunoblotting. For NIH3T3-(P23H opsin/GFP) cells, 15 µg of total protein were loaded per well onto an SDS-polyacrylamide gel; whereas for NIH3T3-(WT-opsin/GFP) cells, 5 µg of total protein was loaded per well. Opsin protein was immunostained with 0.2 μg mL^−1 horseradish peroxidase-conjugated 1D4 anti-rhodopsin antibody. Band intensities were measured with ImageJ software (http://imagej.nih.gov/ij/; National the Institutes of Health, Bethesda, MD, USA) and normalized to a glyceraldehyde 3-phosphate dehydrogenase (GAPDH) loading control. Full scans of immunoblotted membranes are shown in Supplementary Fig. 8.

[4] = modifications linked to C3 of the furan-2(5H)-one ring; 10 doses 0.156-80 µM; read-out: Potency EC50
[5] = 24 h; 5 µM 9-cis-retinal = 100%; experimental maximum
[6] = 24 h; 5 µM 9-cis-retinal = 100%; from curve fitting
[7] = 24 h preincubation; activity standardized to 5 µM 9-cis-retinal as 100%; Hill fit; read-out: β-Gal fragment complementation assay Activity score (%) EC50

SMILES | activity in rescuing P23H-opsin transport (in words) [1] | Emax ([1]; U2OS; read-out: Efficacy (%)) [%] | EC50 [1, 4] [µM] | β-Gal fragment complementation assay Activity score (%) Max (fit) / Efficacy [1, 6] [%] | EC50 [1, 7] [µM] | Immunostaining HCS MEM-Total ratio Max (fit) [2] | EC50 [2] [µM] | Improved glycosylation [3] | further results
O=C(C1CC1)N(CCn1cccn1)c1nc2c(Cl)cccc2s1 [Compound F5581-0240] | – | – | – | 230 | 5.93 | 0.010 | 0.64 | y | β-Gal fragment complementation assay Activity score (%) Max (Exp) [1, 5]: 244%
Cc1c(F)cccc1C1=C(c2ccc(Cl)s2)COC1=O [YC-054] | improved potency, efficacy, or solubility | 227 | 3.53 | – | – | – | – | – | –
O=C(NCCn1ncc2c(NCc3ccco3)ncnc21)c1cc(-c2ccccc2)on1 [Compound F2902-1134] | – | – | – | 31.5 | 21.6 | 0.031 | 4.15 | n | β-Gal fragment complementation assay Activity score (%) Max (Exp) [1, 5]: 23.1%
O=C(Cn1c2c(c(=O)n(C3CCCCC3)c1=O)CCC2)Nc1cccc(F)c1 [Compound F5111-0031] | – | – | – | 165 | 54.3 | 0.025 | 6.76 | y | β-Gal fragment complementation assay Activity score (%) Max (Exp) [1, 5]: 60.4%
COCCNC(=O)c1sc2c(cnc3ccc(OC)cc32)c1-c1ccccc1 [Compound F3382-5924] | – | – | – | 155 | 28.6 | 0.046 | 2.42 | y | –
Cc1sc(C)c(C2C(=O)OC(=O)C2c2c(C)sc(C)c2C)c1C (stereo not drawn) [YC-018] | – | – | – | – | – | – | – | – | EC50 ([1]; more than one site modified; read-out: Potency): 138 µM
O=C1OCC(c2ccc(Cl)s2)=C1c1ccc(Cl)cc1Cl [YC-055] | – | 11 | 5.33 | – | – | – | – | – | –
O=C(NCC#CCN1CCCC1)c1cc(-c2ccccc2)on1 [Compound F6244-1415] | – | – | – | 25.2 | 8.61 | 0.063 | 4.2 | n | β-Gal fragment complementation assay Activity score (%) Max (Exp) [1, 5]: 24.8%
O=C(NCCCn1cccc1)c1cc(-c2ccccc2)on1 [Compound F5937-0207] | – | – | – | 37.3 | 8.38 | 0.021 | 1.33 | n | β-Gal fragment complementation assay Activity score (%) Max (Exp) [1, 5]: 32.8%
O=C1OCC(c2ccc(Cl)s2)=C1c1ccccc1F [YC-068] | relatively higher efficacies; also recorded: improved potency, efficacy, or solubility | 261 | 5.66 | – | – | – | – | – | –
O=C1OCC(c2ccco2)=C1c1cccs1 [YC-049] | some activity that remained | – | – | – | – | – | – | – | EC50 [1]: 91.9 µM; Emax ([1]; U2OS, read-out: Efficacy (%)): 112%
O=C1OCC(c2ccc(Cl)s2)=C1c1ccccn1 [YC-043] | activity was preserved or improved; also recorded: improved potency, efficacy, or solubility | – | 19 | – | – | – | – | – | Efficacy (%) ([1]; modifications at C3; normalized to 5 µM 9-cis-retinal): 214%

More lines, main results first:

activity in rescuing P23H-opsin transport (in words) [1] | Emax ([1]; U2OS; read-out: Efficacy (%)) [%] | EC50 [1, 4] [µM] | β-Gal fragment complementation assay Activity score (%) Max (fit) / Efficacy [1, 6] [%] | EC50 [1, 7] [µM] | Immunostaining HCS MEM-Total ratio Max (fit) [2] | EC50 [2] [µM] | Improved glycosylation [3] | SMILES | further results
little efficacy | 32.9 | 24.1 | – | – | – | – | – | O=C1OCC(c2ccc(Cl)s2)=C1c1ccc(F)cc1 [YC-053] | –
– | 10 | 7.13 | – | – | – | – | – | COc1ccc(C2=C(c3ccc(Cl)s3)COC2=O)cc1 [YC-052] | –
– | 104 | 9.39 | – | – | – | – | – | COc1cccc(C2=C(c3ccc(Cl)s3)COC2=O)c1Cl [YC-056] | –
lower efficacies | 131 | 7.36 | – | – | – | – | – | O=C1OCC(c2ccc(Cl)s2)=C1c1cccc(F)c1 [YC-050] | –
failed to retain activity | – | – | – | – | – | – | – | O=C1OCC(c2ccc(Cl)s2)=C1c1ccco1 [YC-028] | –
activity was preserved or improved | 188 | 9.87 | – | – | – | – | – | O=C1OCC(c2ccc(Cl)s2)=C1c1ccccc1 [YC-047] | –
activity was preserved or improved | 169 | 10.9 | – | – | – | – | – | O=C1OCC(c2ccc(Cl)s2)=C1c1ccsc1 [YC-051] | –
– | 7.1 | – | – | – | – | – | – | O=C1NCC(c2ccc(Cl)s2)=C1c1cccs1 [YC-060] | EC50 ([1]; modifications of the furan-2(5H)-one ring; read-out: Potency): 24.6 µM
